The EC50 is the concentration at which the effect is half-maximal. The term Km denotes the substrate concentration at which the rate is half of its maximum.

The source of these data is paper PMC7415757, “Monocrotaline-induced liver toxicity in rat predicted by a combined in vitro physiologically based kinetic modeling approach” (Archives of Toxicology, 2020).

For data set [1] the following is noted: ref Chen et al. [2018]; cited from earlier work.
Data set [2] has as its system primary rat hepatocytes. The conditions noted are these: same model system; ref Chen et al. [2018]; read-out: EC50 cell viability; cited from earlier work.
For data set [3] the following is noted: ref Chen et al. [2018], cited from earlier work.
In data set [4] the test system is human liver cell line HepaRG. The conditions noted are these: in vitro γH2AX induction potency, ref Louisse et al. ([2019]); cited from earlier work.
For data set [5] the following is noted: ref Chen et al. [2018], cited from earlier work. This is another data set of the same source.
For data set [6], the system named is primary rat hepatocytes. In words: WST-1 cytotoxicity assay with primary rat hepatocytes. It is filed as cell-based, rat (Sprague–Dawley). The conditions noted are these: primary rat hepatocytes. The protocol:
The monocrotaline-induced liver toxicity was tested in vitro using the WST-1 assay which measures the formazan formation by the metabolically active cells from WST-1. Pooled cryopreserved plateable male rat (Sprague–Dawley) hepatocytes (RTCP10™) were thawed and seeded in accordance with the manufacturer’s protocol. Briefly, cells were seeded in 96-well plates (Greiner bio-one, Alphen aan den Rijn, The Netherlands) at a concentration of 5 × 10^5 cells/ml to give 1.25 × 10^4 cells/well and incubated at 37 °C, 5% CO2 in a humidified atmosphere for 6 h to allow cell adherence. […] The solvent DMSO (0.5% (v/v) final concentration in exposure medium) was used as a negative control and triton X (final concentration 1% (v/v) in exposure medium) served as a positive control in all cytotoxicity assays. After exposure for 24 h, 5 μl (1:20 dilution) WST-1 reagent was added to each well and plates were incubated for an additional 1 h. Then, the plate was shaken at 1000 rpm for 1 min, and absorbance was measured at 440 nm (background absorbance at 620 nm was subtracted) using a SpectraMax M2 (Molecular Devices, Sunnyvale, USA).
Data are presented as mean values ± SE from three independent experiments with three different batches of rat hepatocytes. The cell viability was expressed as percentage of the solvent control, with the solvent control set at 100%. The obtained concentration–response curves for hepatotoxicity were fitted with a symmetrical sigmoidal model (Hill slope) which was further used to derive IC50 values using log [inhibitor] vs. normalized response using GraphPad Prism software (version 5.00 for Windows, GraphPad software, San Diego, USA).
On the technique in general: Formazan colour is commonly taken as a measure of viable cells.

Data set [7] is described as follows: Substrate depletion in incubations with pooled rat liver microsomes. The class given is in vitro ADME, rat (Sprague–Dawley). The conditions noted are these: liver microsomes versus intestinal microsomes. How it is done: After 5 min of pre-incubation in a shaking water bath at 37 °C, the reactions were started by the addition of 1 mM NADPH. The reactions were carried out for 1 h and 2 h for liver and intestinal microsomes, respectively. For each incubation, a corresponding control incubated in the absence of NADPH was included by adding buffer instead of NADPH. To stop the metabolic conversion, 100 µl of ice-cold methanol was added and the sample was put on ice, then centrifuged at 5000 × g for 20 min at 4 °C using a microcentrifuge (CT15RE, VWR, Leuven, Belgium). Supernatants were diluted 200 times in 90% (v/v) acetonitrile and transferred to LC–MS vials. LC–MS analysis was performed using a Shimadzu Nexera XR LC-20AD SR UPLC system in tandem with a Shimadzu LCMS-8040 mass spectrometer (Shimadzu, Kyoto, Japan). From each incubation, 1 µl of supernatant was loaded onto a Luna Omega polar C18 100A LC column (1.6 µm 100 × 2.1 mm, Phenomenex) fitted with a FP polar precolumn (Phenomenex), using a flow rate of 0.3 ml/min. The temperature was set at 40 °C and 5 °C for column and sample, respectively. The mobile phase consisted of ultrapure water (solvent A) and acetonitrile (solvent B) both containing 0.1% (v/v) formic acid. The gradient began with 100% solvent A (0% B) for 1 min to wash away unwanted salts, followed by a linear gradient from 0 to 5% B till 8 min and a further increase to 100% B in 2 min, keeping the elution at 100% B for 0.5 min, then the column was set back to the starting conditions and equlibrated for 3.4 min before the next injection. […] For all incubations, three independent replicates were performed.
The ratio of Vmax and Km was calculated as the in vitro catalytic efficiency (kcat) expressed in […]. […] The rat liver weight of 8.5 g and small intestine weight of 3.5 g (see Table 1) (Brown et al. [1997]) were used to scaled the in vivo kcat values to values expressed in ml/min/tissue.
Background: Microsomes from liver hold many membrane-bound enzymes, among them those of drug oxidation.

For data set [8] the following is noted: ref Chen et al. [2018]; cited from earlier work. The source holds these as a separate data set.
The conditions of data set [9]: ref Merz and Schrenk ([2016]); cited from earlier work.

Where two headings read alike, the source gives them in different places.

Regarding `C/C=C(/C)C(=O)O[C@H]1CCN2CC=C(COC(=O)[C@@](O)([C@H](C)OC)C(C)(C)O)[C@H]12` [Lasiocarpine], in data set [1], the “Tissue/blood partition coefficient, fat (PF)” value is 2.44; the “Tissue/blood partition coefficient, liver (PL)” value was 0.88; the “Tissue/blood partition coefficient, richly perfused tissue (PR)” value was 0.88; the “Tissue/blood partition coefficient, slowly perfused tissue (PS)” value is listed as 0.48. The “Tissue/blood partition coefficient, small intestine (PI)” value in [1] is on record as 0.88. For the same compound, in the data set with primary rat hepatocytes [2], the 50% effective concentration (EC50) is 10.9 µM. In addition, the Km in [3] (intestine) is 23.4 µM. The potency group entry in data set [4] was “group 1”. In addition, the Km in data set [5] (liver) was 19.5 µM. In addition, the “times more toxic than monocrotaline in vitro” value in the data set on primary rat hepatocytes [6] stood at 35.7.
In the case of `C=C1C/C(=C/C)C(=O)O[C@@H]2CCN3CC=C(COC(=O)[C@@]1(O)CO)[C@H]23` [Riddelliine], in data set [1], the “Tissue/blood partition coefficient, fat (PF)” value was 0.44; the “Tissue/blood partition coefficient, liver (PL)” value is 0.77; the “Tissue/blood partition coefficient, richly perfused tissue (PR)” value is reported as 0.77; the “Tissue/blood partition coefficient, slowly perfused tissue (PS)” value is given as 0.43. For the same compound, in data set [1], the “Tissue/blood partition coefficient, small intestine (PI)” value is 0.77. The EC50 in the data set on primary rat hepatocytes [2] is 6.3 µM. Moreover, the “in vivo scaled kcat (ml/min tissue) liver relative to intestine” value in [7] was found to be 253 times. Moreover, in [8], the “Ka derived from Eq. 5” value is 1.17 h⁻¹. In [9], the “pRPF (provisional relative potency factor)” value was around 1.0. In [3] (intestine), the Km was 221 µM, the “Scaled Vmax” value is 2.06 nmol/min/g tissue, the Scaled kcat is given as 0.009 ml/min/g tissue and the Vmax is recorded as 0.1 nmol/min/mg microsomal protein. Also, the Scaled kcat in data set [3] (small intestine weight 3.5 g) is 0.03 ml/min/ tissue. Also, in data set [4], the “pRPF (provisional relative potency factor)” value was 1 and the potency group result was “group 1”. The Scaled kcat in data set [5] (liver weight 8.5 g) is listed as 8.2 ml/min/ tissue. For the same compound, in data set [5] (liver), the Km was 75.7 µM, the “Scaled Vmax” value is on record as 73.5 nmol/min/g tissue, the Scaled kcat is listed as 0.97 ml/min/g tissue and the Vmax is reported as 2.1 nmol/min/mg microsomal protein. In addition, the “times more toxic than monocrotaline in vitro” value in the data set on primary rat hepatocytes [6] stood at 20.7.
